Laboratory results as given in patent US20230357269A1 (LES LABORATOIRES SERVIER, priority 2020, published 2023).
Like-named read-outs stand apart in the source and are kept apart here.

How the values were obtained:
[1] = other bond
[2] = target: human recombinant LRRK2 protein (Homo sapiens (Human), UniProt Q5S007); experiment: LRRK2 Kinase Activity Assay (ADP-Glo); type: biochemical; conditions: LRRK2 wt; LRRKtide peptide and ATP substrates; 1h-incubation at 37° C.
Outline: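 Recombinant human LRRK2 acted on LRRKtide peptide and ATP for 1 h at 37 °C. ADP formed was detected by ADP-Glo luminescence (ATP depletion, then ADP-to-ATP conversion and luciferase). IC50s came from curve fits over 10 concentrations (N=2).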

Sequence of human recombinant LRRK2 protein (Q5S007 whole entry): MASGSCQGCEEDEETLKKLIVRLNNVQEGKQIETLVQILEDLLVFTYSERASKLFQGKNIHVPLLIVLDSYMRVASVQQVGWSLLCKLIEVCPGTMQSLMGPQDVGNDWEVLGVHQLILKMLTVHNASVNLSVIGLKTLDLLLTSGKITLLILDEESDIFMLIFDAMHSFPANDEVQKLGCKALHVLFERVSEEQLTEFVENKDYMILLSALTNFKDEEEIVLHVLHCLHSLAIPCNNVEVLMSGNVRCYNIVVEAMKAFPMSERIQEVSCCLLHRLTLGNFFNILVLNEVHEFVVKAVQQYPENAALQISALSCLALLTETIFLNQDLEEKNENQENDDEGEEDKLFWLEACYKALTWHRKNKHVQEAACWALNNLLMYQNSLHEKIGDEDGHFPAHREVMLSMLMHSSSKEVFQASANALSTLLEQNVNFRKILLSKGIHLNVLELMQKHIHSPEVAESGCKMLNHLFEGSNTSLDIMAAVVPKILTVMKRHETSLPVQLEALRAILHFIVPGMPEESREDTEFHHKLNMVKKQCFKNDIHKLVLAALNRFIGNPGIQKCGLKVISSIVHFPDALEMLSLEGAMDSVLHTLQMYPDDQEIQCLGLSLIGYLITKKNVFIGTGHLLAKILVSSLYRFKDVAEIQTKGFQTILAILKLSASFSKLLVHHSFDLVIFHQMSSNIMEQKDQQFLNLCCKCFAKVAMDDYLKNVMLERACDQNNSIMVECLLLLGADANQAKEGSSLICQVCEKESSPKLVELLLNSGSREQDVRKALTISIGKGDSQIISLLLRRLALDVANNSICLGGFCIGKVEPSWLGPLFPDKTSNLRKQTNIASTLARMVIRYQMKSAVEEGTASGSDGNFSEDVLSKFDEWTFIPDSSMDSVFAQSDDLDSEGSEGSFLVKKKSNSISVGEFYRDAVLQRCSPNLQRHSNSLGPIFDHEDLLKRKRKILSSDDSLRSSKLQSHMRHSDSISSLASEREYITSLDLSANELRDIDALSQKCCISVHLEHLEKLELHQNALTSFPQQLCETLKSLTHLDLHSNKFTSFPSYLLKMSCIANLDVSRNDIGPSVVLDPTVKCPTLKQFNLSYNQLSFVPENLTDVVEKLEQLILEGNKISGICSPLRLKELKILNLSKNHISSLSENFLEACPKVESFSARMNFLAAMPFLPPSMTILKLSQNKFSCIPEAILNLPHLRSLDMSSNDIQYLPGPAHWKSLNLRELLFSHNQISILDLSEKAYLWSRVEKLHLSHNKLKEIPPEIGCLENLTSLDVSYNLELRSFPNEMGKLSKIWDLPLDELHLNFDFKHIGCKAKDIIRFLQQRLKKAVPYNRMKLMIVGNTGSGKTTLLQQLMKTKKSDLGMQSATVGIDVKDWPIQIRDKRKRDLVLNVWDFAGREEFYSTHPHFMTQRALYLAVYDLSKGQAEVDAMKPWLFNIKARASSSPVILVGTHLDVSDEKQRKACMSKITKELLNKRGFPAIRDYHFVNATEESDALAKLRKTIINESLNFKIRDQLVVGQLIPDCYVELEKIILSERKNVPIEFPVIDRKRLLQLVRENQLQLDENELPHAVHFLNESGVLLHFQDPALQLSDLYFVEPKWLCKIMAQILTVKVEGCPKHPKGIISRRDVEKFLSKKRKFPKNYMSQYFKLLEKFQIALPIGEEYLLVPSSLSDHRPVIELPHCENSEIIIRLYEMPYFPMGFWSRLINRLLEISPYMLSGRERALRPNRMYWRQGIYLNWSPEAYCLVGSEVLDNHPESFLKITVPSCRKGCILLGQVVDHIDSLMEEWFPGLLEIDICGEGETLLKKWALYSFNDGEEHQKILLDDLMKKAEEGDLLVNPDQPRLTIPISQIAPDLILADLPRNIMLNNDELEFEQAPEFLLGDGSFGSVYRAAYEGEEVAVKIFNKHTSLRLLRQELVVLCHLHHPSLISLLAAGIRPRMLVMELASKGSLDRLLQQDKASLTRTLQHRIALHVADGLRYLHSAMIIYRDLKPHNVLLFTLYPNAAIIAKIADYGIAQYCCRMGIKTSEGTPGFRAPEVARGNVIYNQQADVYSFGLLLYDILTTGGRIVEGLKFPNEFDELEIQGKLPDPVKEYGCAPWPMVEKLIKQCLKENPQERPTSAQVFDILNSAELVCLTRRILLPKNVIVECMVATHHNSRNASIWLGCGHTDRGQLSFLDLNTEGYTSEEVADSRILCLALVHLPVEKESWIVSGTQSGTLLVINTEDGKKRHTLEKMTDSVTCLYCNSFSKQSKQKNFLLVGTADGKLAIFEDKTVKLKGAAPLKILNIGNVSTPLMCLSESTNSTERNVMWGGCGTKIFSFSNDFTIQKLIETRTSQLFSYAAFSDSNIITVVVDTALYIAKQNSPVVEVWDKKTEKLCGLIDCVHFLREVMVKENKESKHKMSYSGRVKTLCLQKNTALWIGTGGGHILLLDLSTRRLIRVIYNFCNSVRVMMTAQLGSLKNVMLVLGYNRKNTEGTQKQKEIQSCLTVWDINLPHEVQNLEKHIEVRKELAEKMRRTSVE

| Structure (SMILES) | IC50 [2] [nM] | other results |
| --- | --- | --- |
| O=C1NCCCOc2ccc3c(c2)c(nn3C2CCCCO2)-c2cc(Br)cc(c2)CO1 (stereo not shown) |  | ring closure, yield of all isomers ([1]; from O=C(NCCCOc1ccc2c(c1)c(-c1cc(Br)cc(CO)c1)nn2C1CCCCO1)OCc1ccccc1, NaH, toluene, 1.6 mM, 140.0 °C, 42.0 h): 25.7% |
| COCC1CCOc2ccc3c(c2)c(nn3C2CCCCO2)-c2cccc(c2)COC(=O)N1 (stereo not shown) |  | ring closure, yield of all isomers ([1]; from COCC(CCOc1ccc2c(c1)c(-c1cccc(CO)c1)nn2C1CCCCO1)NC(=O)OCc1ccccc1, cesium carbonate, acetonitrile, 4.47 mM, 90.0 °C, 6.0 h): 62.3% |
| O=C1NCC(F)(F)COc2ccc3[nH]nc(c3c2)-c2cncc(n2)CO1 [Example 170, 12,12-difluoro-8,14-dioxa-4,10,19,20,23-pentaazatetracyclo[13.5.2.1^2,6.0^18,21]tricosa-1(20),2(23),3,5,15(22),16,18(21)-heptaen-9-one] | < 10 |  |
| CN1CCN(c2ccc3cc2COC(=O)NCCCOc2ccc4[nH]nc-3c4c2)CC1 [Example 49, 5-(4-methylpiperazin-1-yl)-8,14-dioxa-10,19,20-triazatetracyclo[13.5.2.1^2,6.0^18,21]tricosa-1(20),2,4,6(23),15,17,21-heptaen-9-one] | 10 to 100 |  |
| O=C1NCCCOc2ccc3[nH]nc(c3c2)-c2cc(no2)CCCO1 [Example 123, 3,9,15-trioxa-4,11,20,21-tetraazatetracyclo[14.5.2.1^2,5.0^19,22]tetracosa-1(21),2(24),4,16,18,22-hexaen-10-one] | < 10 |  |
| C[C@@H]1CCNC(=O)OCc2cccc(c2)-c2n[nH]c3ncc(cc23)O1 [Example 165, (13R)-13-methyl-8,14-dioxa-10,17,19,20-tetraazatetracyclo[13.5.2.1^2,6.0^18,21]tricosa-1(20),2(23),3,5,15(22),16,18(21)-heptaen-9-one] | < 10 |  |
| O=C1NCCCOc2ccc3[nH]nc(c3c2)-c2cc(cc(N3CCC4(COC4)C3)c2)CO1 [Example 14, 4-{2-oxa-6-azaspiro[3.4]octan-6-yl}-8,14-dioxa-10,19,20-triazatetracyclo[13.5.2.1^2,6.0^18,21]tricosa-1(20),2,4,6(23),15,17,21-heptaen-9-one] | < 10 |  |
| C[C@@H]1CCNC(=O)OCc2cccc(n2)-c2n[nH]c3cc(F)c(cc23)O1 [Example 146, (13R)-16-fluoro-13-methyl-8,14-dioxa-10,19,20,23-tetraazatetracyclo[13.5.2.1^2,6.0^18,21]tricosa-1(20),2,4,6(23),15,17,21-heptaen-9-one] | < 10 |  |
| O=C1NCC(F)(F)COc2ccc3[nH]nc(c3c2)-c2cccc(c2)CO1 [Example 152, 12,12-difluoro-8,14-dioxa-10,19,20-triazatetracyclo[13.5.2.1^2,6.0^18,21]tricosa-1(20),2(23),3,5,15(22),16,18(21)-heptaen-9-one] | < 10 |  |
| O=C1NCCCOc2ccc3[nH]nc(c3c2)-c2cc(cc(C3=CCOC3)c2)CO1 [Example 37, 4-(2,5-dihydrofuran-3-yl)-8,14-dioxa-10,19,20-triazatetracyclo[13.5.2.1^2,6.0^18,21]tricosa-1(20),2,4,6(23),15,17,21-heptaen-9-one] | < 10 |  |
| CC1OC(=O)NCCCOc2ccc3[nH]nc(c3c2)-c2cc(F)cc1c2 (stereo not shown) [Example 56, 4-fluoro-7-methyl-8,14-dioxa-10,19,20-triazatetracyclo[13.5.2.1^2,6.0^18,21]tricosa-1(20),2,4,6(23),15,17,21-heptaen-9-one] | < 10 |  |
| C[C@@H]1CCNC(=O)OCc2nc(cn2C)-c2n[nH]c3ccc(cc23)O1 [Example 158, (12R)-4,12-dimethyl-7,13-dioxa-4,9,18,19,22-pentaazatetracyclo[12.5.2. 1^2,5.0^17,20]docosa-1(19),2,5(22),14(21),15,17(20)-hexaen-8-one] | 10 to 100 |  |
| O=C1NCCCCc2ccc3[nH]nc(c3c2)-c2cccc(c2)CO1 [Example 142, 8-oxa-10,19,20-triazatetracyclo[13.5.2.1^2,6.0^18,21]tricosa-1(20),2(23),3,5, 15(22),16,18(21)-heptaen-9-one] | < 10 |  |
